In patent US12606536B2, “Bioactive phenolate ionic complexes” (priority 2020, dated 2026):
Values after ≈ are worked out from the molar mass of the structure shown. Where a name gives a salt, the structure may show the parent alone.

Experiments:
[1] = Regeneration of thymol from thymol-salts in 0.1 N HCl; type: physicochemical; details: 0.1N HCl solution (pH = 1), 30 min, heptane extraction
Method: Experimental procedure for regeneration studies: Regeneration studies were performed for 2-isopropyl-5-methylphenolate-salts in the 0.1 N HCl solution (1 pH) followed by extracting free thymol with heptane. The appropriate amount of the corresponding thymol-salt (Table 12) was brought into the 20 mL glass vial. To this, 10 mL of 0.1 N was added. The resultant mixture was kept in a shaker for 30 min. After 30 min of acid treatment, 10 mL of heptane was added to the reaction mixture. The collected organic layer was separated from the water layer and carefully dried using rotavapor followed by drying under a temperature-controlled hot oven at 35° C. for 12 h.

[2] = Pharmacokinetics of CBD after IV administration, freely moving rats; type: in vivo
Method: (§1) And dispersed in water to form a nano dispersion of about 30 nanometer. This dispersion was administered to rats by either IV or orally.
For IV administration: Each molecule was dissolved (2% w/w) in pro-nano lipospheres (PNL) formulation (Table 3). Double-distilled water (DDW) was added to a final CBD concentration of 0.2% w/w in the nano-suspension.
Pharmacokinetics (PK) in rats of Cannabidiol (CBD)-choline (Ch) salt following IV and oral administration: Pharmacokinetic study was performed using the freely moving rats model. For intravenously administration a dosage of 1 mg/kg was given (corrections for the salts are in Tables 4 and 5). Two groups were assigned randomly to be administered with either CBD (n=5) or Ch-CBD (n=4). Systemic blood samples (0.35 mL) were taken at 5-min pre-dose and at 5, 15 30 minutes and 1, 1.5, 2, 4, 6, and 8 hr. post dose.
(§2) The oral formulation was administered to the animals by oral gavage with a dosage of 15 mg/kg (corrections for the salts are in Tables 4 and 5). Two groups were assigned randomly to be administered with either CBD (n=5) or Ch-CBD (n=3). Systemic blood samples (0.35 mL) were taken at 5-min pre-dose and at 0.33, 0.66, 1, 1.5, 2, 4, 6, 8 and 10 hr. post dose. To prevent dehydration, equal volumes of physiological solution were administered following each withdrawal of blood sample. Plasma was separated by centrifugation (4000 rpm, 10 min) and stored at −20° C. pending analysis. Plasma aliquots of 150 μL were spiked with 10 μL of internal standard cannabigerol (CBG; 1 μg/mL). ACN (200 μL) was added to each test tube (tubes A) and vortex-mixed for 1 min. The extraction of CBD and CBG was performed by N-hexane (3 mL) that was added to each test tube (tubes A), followed by 1 min. vortex-mixing. After centrifugation at 4000 rpm for 10 min, the n-hexane organic layer was transferred to fresh glass test tubes (tubes B) and evaporated to dryness (Vacuum Evaporation System, Labconco, Kansas City, MO). Then, tubes B were reconstituted in 80 μL of ACN: water (80:20). The resulting solution (80 μl) was injected into the HPLC-MS system. Column used: XTerra MS C18 Column 3.5 μm 2.1×100 mm column (Waters®, Milford, MA). Mobile phase: an isocratic mobile phase of 20:80 (v/v) 2 mM ammonium acetate/acetonitrile. Diluent: 20:80 (v/v) water/acetonitrile. Flow rate: 0.2 mL/min. Column temperature: 35° C.±5° C. Sample Temperature: 20° C.±5° C. The detection masses (m/z): CBG—312.2 and CBD-313.2, with negative electrospray.
(§3) The amounts found in the plasma for the salts were adjusted with the 0.17 correction factor mentioned in Table 6, to resemble dosage of 1 mg/kg for IV administration and 15 mg/kg for oral administration.

[3] = HPLC analysis of regenerated CBD from CBD-Choline (1:1) at pH 1.0; type: physicochemical; details: HCl solution pH = 1.0, 30 min, chloroform extraction
[4] = Oxidation stability (air bubbled through and sun light, HPLC); type: physicochemical; details: exposed to air bubbled through and sun light for 24 hours
Method: A solution of CBD in ethanol was exposed to air bubbled through and sun light. […] When the CBD metal complexes were exposed to air bubbled through oxidation and sun light for 24 hours, no change in CBD content is found, as determined by HPLC.

[5] = Water solubility of CBD metal complexes; type: physicochemical
Method: CBD metal complexes were tested for water solubility (Table 1).

[6] = Pharmacokinetics of CBD after oral administration, freely moving rats; type: in vivo
Method: as §1
For oral administration: Each molecule was dissolved (5% w/w) in pro-nano lipospheres (PNL) formulation (Table 2). Double-distilled water (DDW) was added to a final CBD concentration of 0.5% w/w in the nano-suspension.
as §2, §3

[7] = Reversibility of CBD salts to CBD on acidification; type: physicochemical; details: dilute HCl, pH 3; 1H NMR
Method: 1M HCl solution was added dropwise to aqueous solution of CBD-Na until pH of 3 was achieved. […] The ease of reversibility is paramount to the success of this work, as original compounds may be easily reconstituted by a simple chemical process.
For all salts, adding acidic solution such as HCl, convert back the native CBD.

[8] = octanol/water
[9] = NMR
[10] = PO 12 mg/kg semaglutide; for T0.5 of semaglutide: n = 3
Method: All compounds are powders and each material ratio is by mass.
Animals are anesthetized for the period of surgery. An indwelling cannula is placed in the right jugular vein of each animal for systemic blood sampling. The cannula is tunnelled beneath the skin and exteriorized at the dorsal part of the neck. After completion of the surgical procedure, the animals are transferred to individual cages to recover overnight (12-18 h). During said recovery period, food, but not water, is deprived if an oral absorption experiment is conducted. Throughout the experiments, free access to food is available 4 h post oral administration.
Animals are randomly assigned to the different experimental groups. […] Systemic blood samples (0.36 ml) are obtained by intravenous cannula, placed in the jugular vein. In the case of oral administration, samples are taken at 5 minutes pre-dose and at different time points post dose, according to the pharmacokinetic profile (blood will be drawn no more than 10% of rat blood volume). To prevent dehydration, equal volumes of physiological solution are administered to the rats following each blood sampling. Plasma is separated by centrifugation (4000 rpm, 7 minutes, 4 °C) and stored at −20° C. pending analysis. Plasma samples were analyzed by a developed LC-MS method for Semaglutide.
PK parameters were extracted from the data in a semi-logarithmic scale. […] It is further important to mention that the formulations were prepared by mass ratios.
AUC0-∞^# was calculated for infinity by using the terminal slope.

mold = assay: Hay bale packed in coated packaging; details: after 2 weeks; control bale became moldy
Source text: The copper and zinc-thymol salts were incorporated in polystyrene foam, in a hydrogel during their manufacturing and in coating material of potato seeds and hay packaging material. Moreover, the thymol copper was incorporated in polyethylene sheets during melt extrusion. The salts were incorporated in these formulations while thymol could not be incorporated due to its evaporation rate and low melting point. Thymol was constantly released to air over a period of 3 weeks while protecting the hay from microbial contamination.
In a typical experiment, fresh hay was packed with thymol coated and copper-thymol salt coated packaging. After 2 weeks, the control bale became moldy.

various viruses = details: plants in polystyrene trays containing the salt; blank trays heavily infected
Source text: These trays were used for planting tomato plants contaminated with various viruses.

With “2Na(2-isopropyl-5-methylphenolate)4Zn [Thymol salt 2Na4Zn]” the “% of thymol regenerated” value [1] was 74%.
With `C=C(C)[C@@H]1CCC(C)=C[C@H]1c1c(O)cc(CCCCC)cc1O` [CBD, cannabidiol] the T0.5 ([2]; IV 1 mg/kg in PNL, n = 5) was 1.45 h, the clearance ([2]; rat, plasma, IV 1 mg/kg in PNL, n = 5) was 56.3 mL/min/kg and the Vd ([2]; rat, plasma, IV 1 mg/kg in PNL, n = 5, read-out: Volume of distribution) was 7.02 L/kg. The AUC(0-inf) ([2]; rat, CBD in plasma, IV 1 mg/kg in PNL formulation suspended (X10) in water, until 8 hours, n = 5) was 300 ng·h/mL, the “CBD regenerat. (%)” value [3] was 100.00% and the “Change in CBD content” value [4] was “decrease in CBD content”. It also gave a solubility ([5]; water) of 12.6 µg/mL (≈ 40.1 µM), a T0.5 ([6]; PO 15 mg/kg in PNL, n = 5) of 1.05 ± 0.46 h and an AUC(0-inf) ([6]; rat, plasma, PO 15 mg/kg in PNL, calculated for infinity by the terminal slope, n = 5) of 846 ± 321 ng·h/mL. It also gave a bioavailability ([6]; rat, plasma, PO 15 mg/kg in PNL, calculated using data of CBD in PNL by IV administration, read-out: Fabs (%) (Absolute bioavailability)) of 18.8 ± 7.1%, a Cmax ([6]; rat, plasma, PO 15 mg/kg in PNL, n = 5) of 200 ± 79.5 ng/mL and an AUC(0-t) ([6]; rat, CBD in plasma, PO 15 mg/kg in PNL formulation suspended (X10) in water, until 10 hours, n = 5, read-out: AUC0-10) of 841 ± 319 ng·h/mL.
For `C=C(C)C1CCC(C)=CC1c1c(O)cc(CCCCC)cc1O` (stereo not shown) [CBD-Choline (1:1) salt], the “CBD regenerat. (%)” value [3] was 67.01% and the “CBD regenerat. (%)” value ([3]; listed as CBD-Choline (1:1)) was “about 67.0%”.
With `C=C(C)C1CCC(C)=CC1c1c([O-])cc(CCCCC)cc1[O-].C[N+](C)(C)CCO.C[N+](C)(C)CCO` (stereo not shown) [CBD-Choline] the T0.5 ([2]; IV, MS correction (0.17), PNL, n = 4) was 0.98 h, the T0.5 ([2]; IV, MW adjustment (0.6), PNL, n = 4) was 1.07 h and the “Blood levels after IV compared with CBD” value ([2]; rats, IV) was “comparable”. For the same molecule, the “Conversion back to CBD on acidification” value [7] was “successfully regenerated”, the “Log P” value [8] was 1.71 and the T0.5 ([6]; PO, MS correction (0.17), n = 3) was 1.37 ± 0.47 h. For the same molecule, the T0.5 ([6]; PO, MW adjustment (0.6), n = 3) was 1.37 ± 0.47 h.
`C=C(C)C1CCC(C)=CC1c1c([O-])cc(CCCCC)cc1[O-].[K+].[K+]` (stereo not shown) [CBD-K] gave a Solubility in water [5] of 2 mg/mL.
For `C=C(C)C1CCC(C)=CC1c1c([O-])cc(CCCCC)cc1[O-].[Na+].[Na+]` (stereo not shown) [CBD-Na], the “Conversion back to CBD on acidification” value [7] was “confirmed by ^1H NMR to be CBD” and the Solubility in water [5] was 10 mg/mL.
In the case of `O=C([O-])CCCCCCCNC(=O)c1ccccc1O.[Na+]` [SNAC, Salcaprozate Sodium], the “Behaviour on reducing the pH to acidic pH (1.2)” value [9] is reported as “precipitated”.
In the case of `C[N+](C)(C)CCO.O=C([O-])CCCCCCCNC(=O)c1ccccc1[O-].[Na+]` [SNAC-CH], the T0.5 of semaglutide [10] is reported as 2.62 ± 0.35 h.
In the case of `O=C([O-])CCCCCCCNC(=O)c1ccccc1O.[Na+]` [SNAC-Na], the “Semaglutide absorption compared with the SNAC formulation” value [10] is reported as “didn't contribute to the semaglutide absorption”.
For `O=C([O-])CCCCCCCNC(=O)c1ccccc1[O-].[Na+].[Na+]` [SNAC-Na], the T0.5 of semaglutide [10] was 2.26 ± 1.07 h.
For `Cc1ccc(C(C)C)c(O)c1` [Thymol salt Copper (II), copper(II) 2-isopropyl-5-methylphenolate], the “% of thymol regenerated” value ([1]; listed as Copper (II)) was 72% and the “Mold on hay bale” value (mold) was “has not shown any mold”.
With `Cc1ccc(C(C)C)c(O)c1` [Thymol salt Ferrous (II), ferrous (II) 2-isopropyl-5-methylphenolate] the “% of thymol regenerated” value [1] was 97%.
In the case of `Cc1ccc(C(C)C)c([O-])c1.[Li+]` [Thymol salt Lithium, lithium 2-isopropyl-5-methylphenolate], the “% of thymol regenerated” value [1] is reported as 63%.
In the case of `Cc1ccc(C(C)C)c([O-])c1.[K+]` [Thymol salt Potassium, potassium 2-isopropyl-5-methylphenolate], the “% of thymol regenerated” value [1] is reported as 57%.
In the case of `Cc1ccc(C(C)C)c(O)c1` [Thymol salt Silver, silver 2-isopropyl-5-methylphenolate], the “% of thymol regenerated” value ([1]; listed as Silver) is reported as 57%.
In the case of `Cc1ccc(C(C)C)c([O-])c1.[Na+]` [Thymol salt Sodium, sodium 2-isopropyl-5-methylphenolate], the “% of thymol regenerated” value [1] is reported as 68%.
For `CCCC[N+](CCCC)(CCCC)CCCC` [Thymol salt Tetrabutylammonium, tetrabutylammonium 2-isopropyl-5-methylphenolate], the “% of thymol regenerated” value [1] was 94%.
For `Cc1ccc(C(C)C)c(O)c1` [Thymol salt Zinc (II), zinc(II) 2-isopropyl-5-methylphenolate], the “% of thymol regenerated” value ([1]; listed as Zinc (II)) was 59%.
In the case of `O=C([O-])c1ccccc1.O=C([O-])c1ccccc1.[Cu+2]` [copper benzoate], the “Infection of tomato plants” value (various viruses) is reported as “did not demonstrate any infection”.
In the case of “manganese (II) 2-isopropyl-5-methylphenolate [Thymol salt Manganese(II)]”, the “% of thymol regenerated” value [1] is reported as 77%.
